Key:
[1] = system: carrageenan edema of rat paw; test: Carrageenan edema of rat paw; format: in vivo, outbreed white rats; conditions: rats; 10% ointment; 4 hours post carrageenan
Procedure: The tests were conducted on males of outbreed white rats weighing 250-270 grams. The model of carrageenan edema was used which model is described in Winter et al. In: DeRosa M., Giroud J. P. Willoughby D. A. Studies of the mediators of acute inflammatory response induced in rats in different sites by carrageenan and turpentine.//J. Pharmacol. 1971. V. 104. P. 15-29.
0.1 ml 1% carrageenan solution (SERVA) was subplantarly injected into a right paw of rats. The animals were placed into individual chambers. […] Paw volume was measured using a pletismometer (Ugo Besile) at 4 hours post carrageenan administration. Therapeutic effect of the ointment was assessed by the inhibition degree of inflammatory reaction as compared to an intact left paw of the given animal and to a paw reaction of a control (untreated) group of rats. Inhibition of inflammatory reaction expressed in percent was calculated according to the formula: […]

[2] = system: gastric mucosa of rats; test: Ulcerogenic effect on gastric mucosa; format: in vivo, outbreed rats; conditions: 30 mg/kg once intragastrally, at 24 hours, M ± m
Procedure: The tests were carried out on females of outbreed rats weighing 300-320 grams. The compounds tested were administered once intragastrally at a dose 30 mg/kg to rats deprived of feed for 24 hours prior to the test. Animals in the control group were administered distilled water in the same volume. At 24 hours the animals were sacrificed and stomachs were extracted. An empty stomach was filled with 2% formalin solution and it was placed into a beaker with formalin. 30 minutes later, the stomach was opened along the great curvature, expanded on a slide, fixed and washed with distilled water. Using the magnifying glass MBS-9 (8-fold magnification) length and width of gastric mucosa defects was measured and area in mm^2 was calculated (1 division of the magnifying glass ruler=0.1 mm). Ulcerogenic effect of a substance was assessed by ulcerous lesion area of gastric mucosa according to the technique presented in Rukovodstvo po experimental'nomu (doklinicheskomu) izucheniju novykh pharmacologicheskikh veshchestv (the Guide on Experimental (pre-clinical) Study of Novel Pharmacological Substances)./Moscow. “Remedium” publishers. 2000, 398 pages.

[3] = system: HL-60 cells; conditions: Chen et al., Chinese Pharmaceutical Journal 2001; cited from earlier work

| SMILES | Edema inhibition (%) [1] | Paw volume gain (%) [1] | Area of ulcerous lesion [2] | cellular differentiation [3] |
| --- | --- | --- | --- | --- |
| COc1ccc2c(c1)c(CC(=O)O)c(C)n2C(=O)c1ccc(Cl)cc1 [Indomethacin, reference compound] | 50.0% | 45.0% | 7.3 ± 1.75 mm^2 | – |
| O=C(Cc1ccccc1)N[C@@H](Cc1ccccc1)C(=O)O [XIX, phenylacetylphenylalanine] | – | – | – | inductor of cellular differentiation |

Source: patent publication US8309766B2 (Obschestvo S. Organichennoi Otvetstvennostiyu …, priority 2005, dated 2012)
